Measurements taken from patent US20210284639A1, “TYROSINE AMIDE DERIVATIVES AS RHO- KINASE INHIBITORS” (CHIESI FARMACEUTICI S.p.A., priority 2018, published 2021).

Key:
[1] = target: ROCK 1 (Rho kinase 1) (Homo sapiens, UniProt Q13464); assay: In vitro inhibitory activity assay (ADP-Glo), Rho kinase 1; type: biochemical; settings: Ki by Cheng-Prusoff from IC50; 10 μM ATP, 25° C.
Method: (§1) In Vitro Inhibitory Activity Assay Description
(§2) The effectiveness of compounds of the present invention to inhibit Rho kinase activity can be determined in a 10 μl assay containing 40 mM Tris pH7.5, 20 mM MgCl2 0.1 mg/ml BSA, 50 μM DTT and 2.5 μM peptide substrate (Myelin Basic Protein) using an ADP-Glo kit (Promega). Compounds were dissolved in DMSO such that the final concentration of DMSO was 1% in the assay. All reactions/incubations are performed at 25° C. Compound (2 μl) and either Rho kinase 1 or 2 (4 μl) were mixed and incubated for 30 mins. Reactions were initiated by addition of ATP (4 μl) such that the final concentration of ATP in the assay was 10 μM. After a 1 hour incubation 10 μl of ADP-Glo Reagent was added and after a further 45 minute incubation 20 μl of Kinase Detection Buffer was added and the mixture incubated for a further 30 minutes. The luminescent signal was measured on a luminometer. […] Compounds were tested in dose-response format and the inhibition of kinase activity was calculated at each concentration of compound. To determine the IC50 (concentration of compound required to inhibit 50% of the enzyme activity) data were fit to a plot of % inhibition vs Log10 compound concentration using a sigmoidal fit with a variable slope and fixing the maximum to 100% and the minimum to 0%. To determine the Ki values the Cheng-Prusoff equation was utilized (Ki=IC50/(1+[S]/Km).

[2] = target: ROCK 2 (Rho kinase 2) (Homo sapiens, UniProt O75116); assay: In vitro inhibitory activity assay (ADP-Glo), Rho kinase 2; type: biochemical; settings: Ki by Cheng-Prusoff from IC50; 10 μM ATP, 25° C.
Method: as §1, §2

Chain of ROCK 2 (Rho kinase 2) (O75116 whole entry): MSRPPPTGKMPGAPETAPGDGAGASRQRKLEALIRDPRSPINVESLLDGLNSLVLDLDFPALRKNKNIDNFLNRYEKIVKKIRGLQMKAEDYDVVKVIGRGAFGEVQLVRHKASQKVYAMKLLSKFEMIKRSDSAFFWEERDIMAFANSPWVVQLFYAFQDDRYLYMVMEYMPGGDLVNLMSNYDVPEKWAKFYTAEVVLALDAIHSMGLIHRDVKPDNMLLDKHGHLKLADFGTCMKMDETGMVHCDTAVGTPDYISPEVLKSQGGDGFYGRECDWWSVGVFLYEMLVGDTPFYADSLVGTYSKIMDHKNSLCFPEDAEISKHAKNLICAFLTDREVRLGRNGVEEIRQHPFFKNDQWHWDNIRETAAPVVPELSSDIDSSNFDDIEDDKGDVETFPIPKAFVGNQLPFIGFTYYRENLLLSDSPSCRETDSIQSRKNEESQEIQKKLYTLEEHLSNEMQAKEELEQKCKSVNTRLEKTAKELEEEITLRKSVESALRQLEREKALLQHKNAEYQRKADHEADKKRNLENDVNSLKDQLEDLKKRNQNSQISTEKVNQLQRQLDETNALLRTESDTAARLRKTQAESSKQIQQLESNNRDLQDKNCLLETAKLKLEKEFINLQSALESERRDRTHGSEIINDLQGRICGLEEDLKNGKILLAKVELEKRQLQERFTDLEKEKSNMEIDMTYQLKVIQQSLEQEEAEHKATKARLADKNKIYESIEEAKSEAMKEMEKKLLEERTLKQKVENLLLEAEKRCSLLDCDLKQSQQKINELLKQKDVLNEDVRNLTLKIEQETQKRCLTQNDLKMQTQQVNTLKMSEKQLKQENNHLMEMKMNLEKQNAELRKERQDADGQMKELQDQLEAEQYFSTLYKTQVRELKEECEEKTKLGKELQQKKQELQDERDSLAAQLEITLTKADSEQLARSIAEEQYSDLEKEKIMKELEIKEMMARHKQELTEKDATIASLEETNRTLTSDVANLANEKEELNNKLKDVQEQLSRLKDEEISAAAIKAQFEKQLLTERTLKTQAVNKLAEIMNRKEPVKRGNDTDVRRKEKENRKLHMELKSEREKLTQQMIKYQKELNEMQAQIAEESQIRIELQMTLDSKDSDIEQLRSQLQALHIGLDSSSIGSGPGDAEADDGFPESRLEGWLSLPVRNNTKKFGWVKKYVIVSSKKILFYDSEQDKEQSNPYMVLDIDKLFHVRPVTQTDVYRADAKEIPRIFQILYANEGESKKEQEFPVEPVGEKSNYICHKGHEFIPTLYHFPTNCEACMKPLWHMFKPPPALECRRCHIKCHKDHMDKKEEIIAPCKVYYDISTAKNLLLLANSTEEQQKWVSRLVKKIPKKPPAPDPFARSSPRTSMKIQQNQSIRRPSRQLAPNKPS
Chain of ROCK 1 (Rho kinase 1) (Q13464 whole entry): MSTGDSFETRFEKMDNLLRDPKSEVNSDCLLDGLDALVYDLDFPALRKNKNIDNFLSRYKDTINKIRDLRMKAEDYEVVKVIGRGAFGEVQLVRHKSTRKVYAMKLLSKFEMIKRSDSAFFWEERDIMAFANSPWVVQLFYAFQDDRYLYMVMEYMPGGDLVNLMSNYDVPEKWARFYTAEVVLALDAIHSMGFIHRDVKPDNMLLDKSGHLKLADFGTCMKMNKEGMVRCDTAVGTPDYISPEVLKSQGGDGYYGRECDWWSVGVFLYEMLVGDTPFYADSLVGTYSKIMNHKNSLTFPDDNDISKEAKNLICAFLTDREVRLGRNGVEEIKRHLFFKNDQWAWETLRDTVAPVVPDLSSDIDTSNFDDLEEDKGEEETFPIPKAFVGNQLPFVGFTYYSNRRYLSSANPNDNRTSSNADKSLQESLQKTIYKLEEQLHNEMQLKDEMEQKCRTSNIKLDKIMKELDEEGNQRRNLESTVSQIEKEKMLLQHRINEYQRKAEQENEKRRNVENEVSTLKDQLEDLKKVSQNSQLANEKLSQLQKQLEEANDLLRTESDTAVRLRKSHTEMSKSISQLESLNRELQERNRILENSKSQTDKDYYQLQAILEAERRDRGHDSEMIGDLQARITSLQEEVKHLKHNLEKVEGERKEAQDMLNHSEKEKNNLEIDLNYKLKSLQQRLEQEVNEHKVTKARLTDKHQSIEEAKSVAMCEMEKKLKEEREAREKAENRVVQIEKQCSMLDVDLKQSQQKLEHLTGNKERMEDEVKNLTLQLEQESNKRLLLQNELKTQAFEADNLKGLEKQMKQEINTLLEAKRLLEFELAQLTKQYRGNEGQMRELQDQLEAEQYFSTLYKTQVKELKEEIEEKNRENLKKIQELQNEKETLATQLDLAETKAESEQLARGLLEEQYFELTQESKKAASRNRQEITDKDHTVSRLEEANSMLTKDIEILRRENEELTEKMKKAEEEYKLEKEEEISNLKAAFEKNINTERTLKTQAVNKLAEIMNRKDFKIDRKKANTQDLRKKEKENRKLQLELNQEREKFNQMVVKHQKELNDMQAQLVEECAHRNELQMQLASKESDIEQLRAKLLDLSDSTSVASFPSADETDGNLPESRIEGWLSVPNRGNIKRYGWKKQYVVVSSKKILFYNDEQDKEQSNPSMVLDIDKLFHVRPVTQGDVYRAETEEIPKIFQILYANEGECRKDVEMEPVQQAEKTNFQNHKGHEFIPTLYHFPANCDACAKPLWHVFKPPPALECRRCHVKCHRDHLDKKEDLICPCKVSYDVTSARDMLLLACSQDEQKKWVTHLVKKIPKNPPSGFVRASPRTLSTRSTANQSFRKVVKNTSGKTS

| Compound | Ki [1] | Ki [2] |
| --- | --- | --- |
| Cc1c[nH]c2nccc(Oc3ccc(C[C@H](N)C(=O)N4CCc5ncsc5C4)cc3F)c12 [Example 24, (S)-2-Amino-1-(6,7-dihydrothiazolo[5,4-c]pyridin-5(4H)-yl)-3-(3-fluoro-4-((3-methyl-1H-pyrrolo[2,3-b]pyridin-4-yl)oxy)phenyl)propan-1-one] | < 3 nM | < 3 nM |
| Cc1c[nH]c2nccc(Oc3ccc(C[C@H](N)C(=O)N4CCc5cnccc5C4)cc3F)c12 [Example 25, (S)-2-Amino-1-(3,4-dihydro-2,6-naphthyridin-2(1H)-yl)-3-(3-fluoro-4-((3-methyl-1H-pyrrolo[2,3-b]pyridin-4-yl)oxy)phenyl)propan-1-one] | < 3 nM | < 3 nM |
| Cc1c[nH]c2nccc(Oc3ccc(C[C@H](N)C(=O)N4CCc5ccncc5C4)cc3F)c12 [Example 22, (S)-2-Amino-1-(3,4-dihydro-2,7-naphthyridin-2(1H)-yl)-3-(3-fluoro-4-((3-methyl-1H-pyrrolo[2,3-b]pyridin-4-yl)oxy)phenyl)propan-1-one] | < 3 nM | < 3 nM |
| CCN1CCC(NC(=O)[C@@H](N)Cc2ccc(Oc3ccnc4[nH]cc(C)c34)c(F)c2)CC1 [Example 7, (S)-2-Amino-N-(1-ethylpiperidin-4-yl)-3-(3-fluoro-4-((3-methyl-1H-pyrrolo[2,3-b]pyridin-4-yl)oxy)phenyl)propanamide] | < 3 nM | < 3 nM |
| Cc1c[nH]c2nccc(Oc3ccc(C[C@H](N)C(=O)N4C[C@@H]5C[C@H]4CN5C4CC4)cc3F)c12 [Example 13, (S)-2-Amino-1-((1S,4S)-5-cyclopropyl-2,5-diazabicyclo[2.2.1]heptan-2-yl)-3-(3-fluoro-4-((3-methyl-1H-pyrrolo[2,3-b]pyridin-4-yl)oxy)phenyl)propan-1-one] | < 3 nM | < 3 nM |
| Cc1c[nH]c2nccc(Oc3ccc(C[C@H](N)C(=O)N4CCc5cncnc5C4)cc3F)c12 [Example 23, (S)-2-Amino-1-(5,8-dihydropyrido[3,4-d]pyrimidin-7(6H)-yl)-3-(3-fluoro-4-((3-methyl-1H-pyrrolo[2,3-b]pyridin-4-yl)oxy)phenyl)propan-1-one] | < 3 nM | < 3 nM |
| Cc1c[nH]c2nccc(Oc3ccc(C[C@H](N)C(=O)N4CCC(NC5CC5)CC4)cc3F)c12 [Example 19, (S)-2-Amino-1-(4-(cyclopropylamino)piperidin-1-yl)-3-(3-fluoro-4-((3-methyl-1H-pyrrolo[2,3-b]pyridin-4-yl)oxy)phenyl)propan-1-one] | < 3 nM | < 3 nM |
| Cc1c[nH]c2nccc(Oc3ccc(C[C@H](N)C(=O)NC4CCN(CCCF)CC4)cc3F)c12 [Example 15, (S)-2-Amino-3-(3-fluoro-4-((3-methyl-1H-pyrrolo[2,3-b]pyridin-4-yl)oxy)phenyl)-N-(1-(3-fluoropropyl)piperidin-4-yl)propanamide] | < 3 nM | < 3 nM |
| Cc1c[nH]c2nccc(Oc3ccc(C[C@H](N)C(=O)NC4(C(N)=O)CCN(C5CC5)CC4)cc3F)c12 [Example 21, (S)-4-(2-Amino-3-(3-fluoro-4-((3-methyl-1H-pyrrolo[2,3-b]pyridin-4-yl)oxy)phenyl)propanamido)-1-cyclopropylpiperidine-4-carboxamide] | < 3 nM | < 3 nM |
| Cc1c[nH]c2nccc(Oc3ccc(C[C@H](N)C(=O)NC4CCCN(C)C4)cc3F)c12 (single isomer, unassigned) [Example 18] | 3 to 30 nM | 3 to 30 nM |
| Cc1c[nH]c2nccc(Oc3ccc(C[C@H](N)C(=O)N4CCc5ncccc5C4)cc3F)c12 [Example 26, (S)-2-amino-1-(7,8-dihydro-1,6-naphthyridin-6(5H)-yl)-3-(3-fluoro-4-((3-methyl-1H-pyrrolo[2,3-b]pyridin-4-yl)oxy)phenyl)propan-1-one] | < 3 nM | < 3 nM |
| Cc1c[nH]c2nccc(Oc3ccc(C[C@H](N)C(=O)N[C@@H]4CCN(C)C4)cc3F)c12 [Example 10, (S)-2-Amino-3-(3-fluoro-4-((3-methyl-1H-pyrrolo[2,3-b]pyridin-4-yl)oxy)phenyl)-N-((R)-1-methylpyrrolidin-3-yl)propanamide] | < 3 nM | < 3 nM |
| Cc1c[nH]c2nccc(Oc3ccc(C[C@H](N)C(=O)NC4CCN(CC5CC5)CC4)cc3F)c12 [Example 16, (S)-2-Amino-N-(1-(cyclopropylmethyl)piperidin-4-yl)-3-(3-fluoro-4-((3-methyl-1H-pyrrolo[2,3-b]pyridin-4-yl)oxy)phenyl)propanamide] | < 3 nM | < 3 nM |

The next lines start with the values.

| Ki [1] | Ki [2] | Compound |
| --- | --- | --- |
| < 3 nM | < 3 nM | Cc1c[nH]c2ncnc(Oc3ccc(C[C@H](N)C(=O)NC4(CCO)CCCCC4)cc3F)c12 [Example 34, (S)-2-amino-3-(3-fluoro-4-((5-methyl-7H-pyrrolo[2,3-d]pyrimidin-4-yl)oxy)phenyl)-N-(1-(2-hydroxyethyl)cyclohexyl)propanamide] |
| < 3 nM | < 3 nM | Cc1c[nH]c2nccc(Oc3ccc(C[C@H](N)C(N)=O)cc3F)c12 [Example 47, (S)-2-amino-3-(3-fluoro-4-((3-methyl-1H-pyrrolo[2,3-b]pyridin-4-yl)oxy)phenyl)propanamide] |
| < 3 nM | < 3 nM | COCCNC(=O)C1(NC(=O)[C@@H](N)Cc2ccc(Oc3ccnc4[nH]cc(C)c34)c(F)c2)CCCCC1 [Example 43, (S)-1-(2-amino-3-(3-fluoro-4-((3-methyl-1H-pyrrolo[2,3-b]pyridin-4-yl)oxy)phenyl)propanamido)-N-(2-methoxyethyl)cyclohexanecarboxamide] |
| < 3 nM | < 3 nM | CNC(=O)C1(NC(=O)[C@@H](N)Cc2ccc(Oc3ccnc4[nH]cc(C)c34)c(F)c2)CCCC1 [Example 28, (S)-1-(2-amino-3-(3-fluoro-4-((3-methyl-1H-pyrrolo[2,3-b]pyridin-4-yl)oxy)phenyl)propanamido)-N-methylcyclopentane-1-carboxamide] |
| < 3 nM | < 3 nM | CNC(=O)[C@@H](N)Cc1ccc(Oc2ccnc3[nH]cc(C)c23)c(F)c1 [Example 46, (S)-2-amino-3-(3-fluoro-4-((3-methyl-1H-pyrrolo[2,3-b]pyridin-4-yl)oxy)phenyl)-N-methylpropanamide] |
| 3 to 30 nM | < 3 nM | Cc1c[nH]c2nccc(Oc3ccc(C[C@H](N)C(=O)N(C)C)cc3F)c12 [Example 45, (S)-2-amino-3-(3-fluoro-4-((3-methyl-1H-pyrrolo[2,3-b]pyridin-4-yl)oxy)phenyl)-N,N-dimethylpropanamide] |
| < 3 nM | < 3 nM | Cc1c[nH]c2nccc(Oc3ccc(C[C@H](N)C(=O)NC4(CO)CCC4)cc3F)c12 [Example 30, (S)-2-amino-3-(3-fluoro-4-((3-methyl-1H-pyrrolo[2,3-b]pyridin-4-yl)oxy)phenyl)-N-(1-(hydroxymethyl)cyclobutyl)propanamide] |
| < 3 nM | < 3 nM | Cc1c[nH]c2ncnc(Oc3ccc(C[C@H](N)C(=O)NC4(CO)CCCCC4)cc3F)c12 [Example 35, (S)-2-Amino-3-(3-fluoro-4-((5-methyl-7H-pyrrolo[2,3-d]pyrimidin-4-yl)oxy)phenyl)-N-(1-(hydroxymethyl)cyclohexyl)propanamide] |
| < 3 nM | < 3 nM | Cc1c[nH]c2ncnc(Oc3ccc(C[C@H](N)C(=O)N4CCC(S(=O)(=O)c5ccc(F)cc5)CC4)cc3F)c12 [Example 37, (S)-2-Amino-3-(3-fluoro-4-((5-methyl-7H-pyrrolo[2,3-d]pyrimidin-4-yl)oxy)phenyl)-1-(4-((4-fluorophenyl)sulfonyl)piperidin-1-yl)propan-1-one] |
| < 3 nM | < 3 nM | Cc1c[nH]c2ncnc(Oc3ccc(C[C@H](N)C(=O)N4CC[C@H](S(=O)(=O)c5ccccc5)C4)cc3F)c12 [Example 38, (S)-2-Amino-3-(3-fluoro-4-((5-methyl-7H-pyrrolo[2,3-d]pyrimidin-4-yl)oxy)phenyl)-1-((S)-3-(phenylsulfonyl)pyrrolidin-1-yl)propan-1-one] |
| < 3 nM | < 3 nM | Cc1c[nH]c2ncnc(Oc3ccc(C[C@H](N)C(=O)NC4CCN(C5CC5)CC4)cc3F)c12 [Example 39, (S)-2-Amino-N-(1-cyclopropylpiperidin-4-yl)-3-(3-fluoro-4-((5-methyl-7H-pyrrolo[2,3-d]pyrimidin-4-yl)oxy)phenyl)propanamide] |
| < 3 nM | < 3 nM | Cc1c[nH]c2nccc(Oc3ccc(C[C@H](N)C(=O)NC4(C(N)=O)CCC4)cc3F)c12 [Example 27, (S)-1-(2-Amino-3-(3-fluoro-4-((3-methyl-1H-pyrrolo[2,3-b]pyridin-4-yl)oxy)phenyl)propanamido)cyclobutane-1-carboxamide] |
| < 3 nM | < 3 nM | Cc1c[nH]c2nccc(Oc3c(F)cc(C[C@H](N)C(=O)N4CCC(S(=O)(=O)c5ccccc5)CC4)cc3F)c12 [Example 42, (S)-2-amino-3-(3,5-difluoro-4-((3-methyl-1H-pyrrolo[2,3-b]pyridin-4-yl)oxy)phenyl)-1-(4-(phenylsulfonyl)piperidin-1-yl)propan-1-one] |
